Laboratory results: PubChem BioAssay AID256 (DTP/NCI, 2004)
Several values for one entry are separate records, joined by “and”; a condition that tells them apart may be missing. Equal values may be shown once. Toxic doses and inconclusive results are not listed. Rule for the calls: active = survival T/C of 150% or more; inactive = T/C below 125% in these data.

System: CD2F1 mice, L1210 leukemia ip, survival T/C
Test: NCI In Vivo Anticancer Drug Screen. Data for tumor model L1210 Leukemia (intraperitoneal) in CD2F1 (CDF1) mice
Settings: higher = longer survival
Procedure, shortened: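 Read-out first: treated-group measurement over vehicle-control measurement, expressed as a ratio. Animals bore a transplanted tumor line and were dosed with compound or vehicle.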

[1] = endpoint: mean survival time, dose: 100.0 mg/kg/injection, schedule: Q01DX001 (ip), vehicle: saline with Tween-80
[2] = endpoint: mean survival time, dose: 200.0 mg/kg/injection, schedule: Q01DX001 (ip), vehicle: saline with Tween-80
[3] = endpoint: mean survival time, dose: 100.0 mg/kg/injection, schedule: Q04DX003 (ip), vehicle: saline with Tween-80
[4] = endpoint: mean survival time, dose: 200.0 mg/kg/injection, schedule: Q04DX003 (ip), vehicle: saline with Tween-80
[5] = endpoint: mean survival time, dose: 400.0 mg/kg/injection, schedule: Q04DX003 (ip), vehicle: saline with Tween-80
[6] = endpoint: mean survival time, dose: 100.0 mg/kg/injection, schedule: Q01DX009 (ip), vehicle: saline with Tween-80
[7] = endpoint: mean survival time, dose: 200.0 mg/kg/injection, schedule: Q01DX009 (ip), vehicle: saline with Tween-80
[8] = endpoint: mean survival time, dose: 100.0 mg/kg/injection, schedule: Q01DX001 (ip), vehicle: saline
[9] = endpoint: mean survival time, dose: 200.0 mg/kg/injection, schedule: Q01DX001 (ip), vehicle: saline
[10] = endpoint: mean survival time, dose: 400.0 mg/kg/injection, schedule: Q01DX001 (ip), vehicle: saline
[11] = endpoint: mean survival time, dose: 100.0 mg/kg/injection, schedule: Q04DX003 (ip), vehicle: saline
[12] = endpoint: mean survival time, dose: 25.0 mg/kg/injection, schedule: Q01DX009 (ip), vehicle: saline with Tween-80
[13] = endpoint: mean survival time, dose: 50.0 mg/kg/injection, schedule: Q01DX009 (ip), vehicle: saline with Tween-80
[14] = endpoint: mean survival time, dose: 12.5 mg/kg/injection, schedule: Q01DX009 (ip), vehicle: saline with Tween-80
[15] = endpoint: mean survival time, dose: 400.0 mg/kg/injection, schedule: Q01DX001 (ip), vehicle: saline with Tween-80
[16] = endpoint: mean survival time, dose: 200.0 mg/kg/injection, schedule: Q04DX003 (ip), vehicle: saline
[17] = endpoint: mean survival time, dose: 400.0 mg/kg/injection, schedule: Q04DX003 (ip), vehicle: saline

Measured: T/C

CN(C)c1ccn(C2OC(CO)C(O)C2SC(C)(C)C)c(=O)n1 (centres undefined)
inactive: endpoint: median survival time, dose: 12.5 mg/kg/injection, schedule: Q01DX005 (ip), vehicle: saline 100 % of control | endpoint: median survival time, dose: 25.0 mg/kg/injection, schedule: Q01DX005 (ip), vehicle: saline 99 % of control | endpoint: median survival time, dose: 50.0 mg/kg/injection, schedule: Q01DX005 (ip), vehicle: saline 97 % of control | endpoint: median survival time, dose: 100.0 mg/kg/injection, schedule: Q01DX005 (ip), vehicle: saline 104 % of control | endpoint: median survival time, dose: 200.0 mg/kg/injection, schedule: Q01DX005 (ip), vehicle: saline 96 % of control

c1ccc2nc(CCc3ccc4ccccc4n3)ccc2c1
inactive: endpoint: mean survival time, dose: 50.0 mg/kg/injection, schedule: Q01DX009 (ip), vehicle: saline 96 % of control | endpoint: mean survival time, dose: 100.0 mg/kg/injection, schedule: Q01DX009 (ip), vehicle: saline 100 % of control | endpoint: mean survival time, dose: 200.0 mg/kg/injection, schedule: Q01DX009 (ip), vehicle: saline 102 % of control

Cc1ccc(C(=O)C(F)F)cc1
inactive: endpoint: mean survival time, dose: 50.0 mg/kg/injection, schedule: Q01DX001 (ip), vehicle: saline with Tween-80 100 % of control | [1] 101 % of control | [2] 101 % of control

CCOC(=O)c1cccc2ncccc12
inactive: endpoint: mean survival time, dose: 75.0 mg/kg/injection, schedule: Q04DX003 (ip), vehicle: saline 101 % of control | endpoint: mean survival time, dose: 150.0 mg/kg/injection, schedule: Q04DX003 (ip), vehicle: saline 93 % of control | endpoint: mean survival time, dose: 300.0 mg/kg/injection, schedule: Q04DX003 (ip), vehicle: saline 97 % of control

O=Cc1[nH]c(=S)[nH]c(=O)c1Cc1cccc2ccccc12
inactive: [3] 96 % of control | [4] 95 % of control | [5] 102 % of control

[NH-]NC(=S)[S-].[NH-]NC(=S)[S-].[Pd]
inactive: [3] 91 % of control

Cc1cn(C2CC(O)C(CN=[N+]=[N-])O2)c(=O)[nH]c1=O (centres undefined)
inactive: endpoint: mean survival time, dose: 12.5 mg/kg/injection, schedule: Q01DX005 (ip), vehicle: other 93 % of control | endpoint: mean survival time, dose: 25.0 mg/kg/injection, schedule: Q01DX005 (ip), vehicle: other 96 % of control | endpoint: mean survival time, dose: 50.0 mg/kg/injection, schedule: Q01DX005 (ip), vehicle: other 95 % of control | endpoint: mean survival time, dose: 100.0 mg/kg/injection, schedule: Q01DX005 (ip), vehicle: other 93 % of control | endpoint: mean survival time, dose: 200.0 mg/kg/injection, schedule: Q01DX005 (ip), vehicle: other 93 % of control

O=C1CCCCC1(c1ccccc1)c1ccccc1
inactive: [6] 101 % of control | [3] 101 % of control | [7] 97 % of control | [4] 99 % of control | endpoint: mean survival time, dose: 400.0 mg/kg/injection, schedule: Q01DX009 (ip), vehicle: saline with Tween-80 98 % of control | [5] 97 % of control

O=C1CCCCCCCCC1O (centres undefined)
inactive: [3] 102 % of control | [4] 103 % of control | [5] 96 % of control

S=[As](c1ccccc1)(c1ccccc1)c1ccccc1
inactive: [8] 103 % of control | [9] 100 % of control | [10] 91 % of control

O=C(CBr)c1ccc(I)cc1
inactive: endpoint: mean survival time, dose: 3.13 mg/kg/injection, schedule: Q04DX003 (ip), vehicle: saline 94 % of control | endpoint: mean survival time, dose: 6.25 mg/kg/injection, schedule: Q04DX003 (ip), vehicle: saline 98 % of control | endpoint: mean survival time, dose: 12.5 mg/kg/injection, schedule: Q04DX003 (ip), vehicle: saline 94 % of control | endpoint: mean survival time, dose: 25.0 mg/kg/injection, schedule: Q04DX003 (ip), vehicle: saline 98 % of control | endpoint: mean survival time, dose: 50.0 mg/kg/injection, schedule: Q04DX003 (ip), vehicle: saline 98 % of control | [11] 106 % of control

N#CC(c1cccnc1)N1CCOCC1 (centres undefined)
inactive: [12] 98 % of control | [13] 103 % of control

CC(=O)Nc1ccc(OCCOC(=O)Nc2ccc(C)c([N+](=O)[O-])c2)cc1
inactive: [14] 92 % of control | [12] 88 % of control | [13] 92 % of control

CN(C)C/C(=N\OC(=O)c1ccccc1)c1ccc(Cl)cc1
inactive: [13] 107 % of control | [1] 96 % of control | [6] 96 % of control | [2] 104 % of control | [7] 96 % of control | [15] 93 % of control

Cc1ccc(NC(=O)Oc2ccc(Br)cc2)cc1[N+](=O)[O-]
inactive: [13] 98 % of control | [6] 102 % of control | [7] 98 % of control

CS(=O)(=O)OCCCN(CCCOS(C)(=O)=O)c1ccc(C=Nc2ccc(-c3csc(COc4ccc(Cl)cc4)n3)cc2)cc1
inactive: [1] 91 % of control | [2] 91 % of control | [15] 95 % of control

CC1=CC2=C(C=O)C(=O)[C@](C)(O)[C@@H](O)C2=CO1
inactive: [14] 114 % of control | [12] 111 % of control | [13] 122 % of control

Cc1ccc([N+](=O)[O-])cc1NC(=O)N1CCC(C)CC1
inactive: endpoint: mean survival time, dose: 50.0 mg/kg/injection, schedule: Q01DX009 (ip), vehicle: Klucel (hydroxypropylcellulose) (HPC) 98 % of control | endpoint: mean survival time, dose: 100.0 mg/kg/injection, schedule: Q01DX009 (ip), vehicle: Klucel (hydroxypropylcellulose) (HPC) 96 % of control | endpoint: mean survival time, dose: 200.0 mg/kg/injection, schedule: Q01DX009 (ip), vehicle: Klucel (hydroxypropylcellulose) (HPC) 101 % of control

COC(=O)C(N)CSCSCc1ccccc1 (centres undefined)
inactive: endpoint: mean survival time, dose: 25.0 mg/kg/injection, schedule: Q01DX005 (ip), vehicle: water 101 % of control | endpoint: mean survival time, dose: 50.0 mg/kg/injection, schedule: Q01DX005 (ip), vehicle: water 93 % of control | endpoint: mean survival time, dose: 100.0 mg/kg/injection, schedule: Q01DX005 (ip), vehicle: water 93 % of control

Nc1ncnc2c1ncn2C1OC(COCc2ccccc2)C(OCc2ccccc2)C1OCc1ccccc1 (centres undefined)
inactive: endpoint: mean survival time, dose: 20.0 mg/kg/injection, schedule: Q01DX Z (ip), vehicle: saline 90 % of control | endpoint: mean survival time, dose: 40.0 mg/kg/injection, schedule: Q01DX Z (ip), vehicle: saline 90 % of control | endpoint: mean survival time, dose: 80.0 mg/kg/injection, schedule: Q01DX Z (ip), vehicle: saline 90 % of control and 93 % of control | endpoint: mean survival time, dose: 160.0 mg/kg/injection, schedule: Q01DX Z (ip), vehicle: saline 91 % of control and 96 % of control

C[S+](C)CCC(N)C(=O)O (centres undefined) (tested in a mixture with another compound)
inactive: endpoint: median survival time, dose: 3.13 mg/kg/injection, schedule: Q04DX002 (ip), vehicle: saline 111 % of control | endpoint: median survival time, dose: 6.25 mg/kg/injection, schedule: Q04DX002 (ip), vehicle: saline 111 % of control | endpoint: median survival time, dose: 12.5 mg/kg/injection, schedule: Q04DX002 (ip), vehicle: saline 111 % of control | endpoint: median survival time, dose: 25.0 mg/kg/injection, schedule: Q04DX002 (ip), vehicle: saline 111 % of control and 108 % of control | endpoint: median survival time, dose: 50.0 mg/kg/injection, schedule: Q04DX002 (ip), vehicle: saline 111 % of control and 94 % of control | endpoint: median survival time, dose: 100.0 mg/kg/injection, schedule: Q04DX002 (ip), vehicle: saline 117 % of control and 100 % of control | endpoint: median survival time, dose: 400.0 mg/kg/injection, schedule: Q04DX002 (ip), vehicle: saline 100 % of control

Cc1cc(C)c(S(=O)(=O)c2ccc(F)cc2)c(C)c1
inactive: [8] 100 % of control | [11] 101 % of control | [9] 102 % of control | [16] 102 % of control | [10] 100 % of control | [17] 96 % of control

C=CCc1ccccc1OC
inactive: [11] 95 % of control | [16] 104 % of control | [17] 95 % of control

Oc1c(Cl)cc(Cl)cc1/C=N/NC(=S)Nc1cc(C(F)(F)F)cc(C(F)(F)F)c1
inactive: endpoint: mean survival time, dose: 6.25 mg/kg/injection, schedule: Q01DX009 (ip), vehicle: olive oil, sesame oil, peanut oil 102 % of control | endpoint: mean survival time, dose: 12.5 mg/kg/injection, schedule: Q01DX009 (ip), vehicle: olive oil, sesame oil, peanut oil 100 % of control | endpoint: mean survival time, dose: 25.0 mg/kg/injection, schedule: Q01DX009 (ip), vehicle: olive oil, sesame oil, peanut oil 100 % of control | endpoint: mean survival time, dose: 50.0 mg/kg/injection, schedule: Q01DX009 (ip), vehicle: olive oil, sesame oil, peanut oil 102 % of control | endpoint: mean survival time, dose: 100.0 mg/kg/injection, schedule: Q01DX009 (ip), vehicle: olive oil, sesame oil, peanut oil 102 % of control | endpoint: mean survival time, dose: 200.0 mg/kg/injection, schedule: Q01DX009 (ip), vehicle: olive oil, sesame oil, peanut oil 94 % of control

CS(=O)(=O)N1CCCCC1
inactive: endpoint: mean survival time, dose: 75.0 mg/kg/injection, schedule: Q01DX001 (ip), vehicle: saline 100 % of control
